Experimental findings from patent publication US20260262647A1, “Synergistic Compositions Containing Guanidine” (Thor GmbH, priority 2023, published 2026) are described below.

Type in all cases: cell-based
For one test, the system named is bacteria mixture A. Briefly: Emulsion paint inoculated three times with bacteria mixture A, live bacteria count CFU/g. Conditions: for CFU/g after inoculation: emulsion paint, 7 d. The source says: In example 34, the synergistic interaction between guanidine and a zinc compound (zinc oxide) with respect to microbial infestation was examined in an emulsion paint by adding particular amounts of guanidine in the form of guanidine hydrochloride and a zinc compound in the form of zinc oxide, and tested for stability to microbial infestation. The paint tested was an emulsion paint based on styrene-acrylate binder (PVK 77%, pH 8.8) for indoor use, produced in the laboratory, without addition of the usual preservatives.
The samples were inoculated repeatedly, three times in total, with a bacterial cell suspension of the following composition (2% v/w).
• Alcaligenes faecalis NCIMB 13145 • Escherichia coli DSM 13631 • Burkholderia cepacia DSM 9241 • Staphylococcus aureus DSM 799 • Pseudomonas aeruginosa DSM 50071 • Pseudomonas putida DSM 13624
The cell suspension of the bacteria mixture A was produced by growing the individual bacteria at 30° C. for 24 h in liquid culture on a shaker. The growth medium used for the bacteria was Müller-Hinton liquid medium. After growing, the individual liquid cultures were centrifuged, and the cells were resuspended in physiological saline solution. In order to adjust the mixture to a total cell count of 10^9/ml, the individual bacteria suspensions, if necessary, were diluted accordingly before being combined with saline solution. The cell count of the inoculum was determined in each case by chamber counting.
After each inoculation and after incubation at 30° C. for 7 days, microbial infestation was evaluated in the samples by determining the live bacteria count per g of paint (colony-forming units, CFU/g). The CFU/g was determined each time by taking an aliquot (1 g) from the previously homogenized sample and running a serial decadic dilution series in physiological saline solution (0.9% NaCl) by streaking on tryptic soy agar, followed by incubation of the agar plates at 30° C. for 48 h.

Test [1] concerns yeast mixture. The experiment in a line: Laundry detergent inoculated once with yeast mixture, semiquantitative growth evaluation. Further details: key: 0: No growth; Minimal growth, 1 to 10 colonies visible over the entire streak; 2: Light growth, maximum 100 colonies; Moderate growth, maximum 300 to 400 colonies; Uniform growth, >400 colonies, single colonies still clearly recognizable; 5: Heavy growth, too many colonies to count, but no growth over the entire streak; 6: Full growth, barely any single colonies still apparent, growth over the entire streak. Conditions: Example 37, laundry detergent, +8000 ppm guanidine hydrochloride (4944 ppm guanidine). The source says:
(§1) In examples 35 to 38 below, synergistic interaction between guanidine and antimicrobial substances with respect to microbial infestation was studied using an emulsion paint and a laundry detergent or cleaning composition by adding particular amounts of guanidine salts and isothiazolinones and examining their stability against microbial infestation: […] The laundry detergent was a heavy-duty laundry detergent without preservatives (pH 8.1), and the cleaning composition was an all-purpose detergent without preservatives (pH 7.6), each likewise made in the laboratory, without addition of the otherwise usual conventional preservatives. To each paint was added—individually and in combination—particular concentrations of guanidinium hydrochloride, benzisothiazolinone (BIT), and a mixture of chloromethylisothiazolinone (CIT) and methylisothiazolinone (MIT). The laundry detergent and the cleaning composition were admixed with particular concentrations of guanidinium hydrochloride and benzisothiazolinone (BIT). The resultant batches of the paint thus prepared were inoculated with a mixture of different bacteria species (bacteria mixture B); the batches of the laundry detergent and cleaning compositions thus prepared were inoculated with a yeast mixture. • Pichia manshurica DSM 12249 • Rhodotorula mucilaginosa DSM 12248 • Candida boidinii DSM 13622 • Candida albicans DSM 1386 […] Further steps for establishment of a cell count of the inoculum suspension of 10^8/ml were effected analogously to the production of the bacteria suspension. […] The streaked agar plates were then incubated at 30° C. for 48 hours (bacteria) or at 25° C. for 72 hours (yeasts). After incubation, the bacterial or yeast colonies that have grown on the agar plates were visually evaluated and quantified according to the following scheme: [table]

For test [2], the system named is yeast mixture. Briefly: All-purpose detergent inoculated once with yeast mixture, semiquantitative growth evaluation. The settings on record: Example 38, all-purpose detergent, +8000 ppm guanidine hydrochloride (4944 ppm guanidine). Further details: key: 0: No growth; Minimal growth, 1 to 10 colonies visible over the entire streak; 2: Light growth, maximum 100 colonies; Moderate growth, maximum 300 to 400 colonies; Uniform growth, >400 colonies, single colonies still clearly recognizable; 5: Heavy growth, too many colonies to count, but no growth over the entire streak; 6: Full growth, barely any single colonies still apparent, growth over the entire streak.
From the text: as §1

On to `N=C(N)N` [guanidine], for which the CFU/g after inoculation in the test on bacteria mixture A (Guanidine hydrochloride 1000 ppm (618 ppm guanidine), 1. inoculation) is listed as 8.7 × 10^5 CFU/g; with bacteria mixture A (Guanidine hydrochloride 1000 ppm (618 ppm guanidine), 2. inoculation), >10^6 CFU/g; with bacteria mixture A (Guanidine hydrochloride 1000 ppm (618 ppm guanidine), 3. inoculation), >10^6 CFU/g; with bacteria mixture A (Guanidine hydrochloride 2500 ppm (1545 ppm guanidine), 1. inoculation), under 100 CFU/g; in the test on bacteria mixture A (Guanidine hydrochloride 2500 ppm (1545 ppm guanidine), 2. inoculation), under 100 CFU/g; in the test on bacteria mixture A (Guanidine hydrochloride 2500 ppm (1545 ppm guanidine), 3. inoculation), >10^6 CFU/g. Besides, the CFU/g after inoculation with bacteria mixture A (Guanidine hydrochloride 5000 ppm (3090 ppm guanidine), 1. inoculation) is listed as under 100 CFU/g; with bacteria mixture A (Guanidine hydrochloride 5000 ppm (3090 ppm guanidine), 2. inoculation), under 100 CFU/g; in the test with bacteria mixture A (Guanidine hydrochloride 5000 ppm (3090 ppm guanidine), 3. inoculation), under 100 CFU/g. In addition, the “QA: Concentration of guanidine as the sole agent that shows an endpoint” value in the test on bacteria mixture A (guanidine alone in emulsion paint, endpoint after 3 inoculations up to a maximum of 1000 CFU/g) is on record as 3090 ppm. Moreover, the “Synergy index Qa/QA + Qb/QB” value in the test with bacteria mixture A (guanidine and zinc in emulsion paint, Qa, Qb) is reported as 1.00. For the same compound, the Bacterial growth in the test with yeast mixture [1] (Day 1) and with yeast mixture [1] (Day 3) was 6 throughout. For the same compound, the Yeast growth in the test with yeast mixture [2] (Day 1) is recorded as 6; in the test with yeast mixture [2] (Day 3), 4 (Uniform growth, >400 colonies, single colonies still clearly recognizable).
